Molecules are shown by their SMILES. pEC50: −log10 of the molar value.

Results on 27 compounds are retold here after ChEMBL document CHEMBL1132095, “6-arylamino-5,8-quinolinediones and 7-arylamino-5,8-isoquinolinediones as inhibitors of endothelium-dependent vasorelaxation” (Bioorg Med Chem Lett, 1999).

For experiment [1], the species on record is Rattus norvegicus. The experiment can be described thus: Percent of maximal acetylcholine (ACh)-induced vasorelaxation of the rat aorta. It is filed as functional.
Experiment [2] is filed under the species Rattus norvegicus. Nature of the experiment: Inhibitory activity on acetylcholine-induced vasorelaxation of phenylephrine-precontracted rat aorta with intact endothelium. Type of experiment: functional, organism-based.

As usually defined, the Emax is the greatest response seen or fitted, relative to the assay's reference. Usually pEC50 stands for −log10 of the EC50, conventionally taken in molar units. Higher therefore signals a small EC50. For the compound `O=C1C(Nc2ccc(F)cc2F)=CC(=O)c2ncccc21`, the Emax in the experiment listed under Rattus norvegicus [1] came out at 94%. The compound also gave a negative-log EC50 (pEC50) in the experiment listed under Rattus norvegicus [2] of 6.54.
Compound `O=C1C=C(Nc2ccc(F)cc2F)C(=O)c2cnccc21` showed a maximal response (Emax) in the experiment filed under Rattus norvegicus [1] of 96%. This compound gave a pEC50 in the experiment listed under Rattus norvegicus [2] of 6.37.
Taken in the same sequence, the figures for `O=C1C=CC(=O)c2ncccc21` were 80% and 6.28.
Taken in the same sequence, the figures for `O=C1C=C(Nc2cccc(F)c2)C(=O)c2cnccc21` were 89% and 6.25.
On to `O=C1C(Nc2ccc(C(F)(F)F)cc2)=CC(=O)c2ncccc21`, for which the maximal response (Emax) in the experiment filed under Rattus norvegicus [1] turned out to be 91%. Also, the negative logarithm of the EC50 (pEC50) in the experiment filed under Rattus norvegicus [2] is 6.22.
The matching figures for `O=C1C=C(Nc2ccc(F)c(F)c2F)C(=O)c2cnccc21`: 87% and 5.95.
Taken in the same sequence, the figures for `O=C1C(Nc2ccc(F)c(F)c2F)=CC(=O)c2ncccc21` were 72% and 6.03.
Compound `O=C1C(Nc2ccccc2)=CC(=O)c2ncccc21` registered an Emax in the experiment listed under Rattus norvegicus [1] of 77%. Further, in the experiment filed under Rattus norvegicus [2], the pEC50 is 6.47.
The matching figures for `O=C1C(Nc2cccc(F)c2)=CC(=O)c2ncccc21`: 85% and 6.09.
For the compound `O=C1C(Nc2ccc(I)cc2)=CC(=O)c2ncccc21`, the Emax in the experiment filed under Rattus norvegicus [1] amounted to 89%. In the experiment filed under Rattus norvegicus [2], this compound gave a pEC50 of 6.67.
As for `O=C1C=C(Nc2ccc(F)cc2)C(=O)c2cnccc21`, the Emax in the experiment filed under Rattus norvegicus [1] turned out to be 72%. In the experiment filed under Rattus norvegicus [2], the pEC50 is 5.91.
Taken in the same sequence, the figures for `O=C1C=C(Nc2ccc(F)c(F)c2)C(=O)c2cnccc21` were 81% and 6.19.
The compound `O=C1C=C(Nc2ccc(Cl)cc2)C(=O)c2ccccc21` gave a maximum response (Emax) in the experiment listed under Rattus norvegicus [1] of 98%. In addition, in the experiment filed under Rattus norvegicus [2], the negative-log EC50 (pEC50) was 6.66.
`O=C1C(Nc2ccc(F)cc2)=CC(=O)c2ncccc21` came in with a maximum response (Emax) in the experiment filed under Rattus norvegicus [1] of 79%. The compound further had a pEC50 in the experiment listed under Rattus norvegicus [2] of 6.27.
As for `O=C1C=C(Nc2ccc(Cl)cc2)C(=O)c2cnccc21`, in the experiment filed under Rattus norvegicus [1], the Emax is 96%. For the same compound, the negative logarithm of the EC50 (pEC50) in the experiment listed under Rattus norvegicus [2] is 6.72.
Taken in the same sequence, the figures for `O=C1C(Nc2ccc(Br)cc2)=CC(=O)c2ncccc21` were 88% and 6.52.
The matching figures for `O=C1C(Nc2ccc(Cl)cc2)=CC(=O)c2ncccc21`: 86% and 6.75.
`O=C1C=C(Nc2ccc(F)c(F)c2F)C(=O)c2ccccc21` gave an Emax in the experiment listed under Rattus norvegicus [1] of 97%. This compound had a negative logarithm of the EC50 (pEC50) in the experiment listed under Rattus norvegicus [2] of 6.48.
The compound `O=C1C(Nc2ccc(F)c(F)c2)=CC(=O)c2ncccc21` yielded an Emax in the experiment filed under Rattus norvegicus [1] of 92%. The compound further gave a negative-log EC50 (pEC50) in the experiment listed under Rattus norvegicus [2] of 6.60.
Taken in the same sequence, the figures for `O=C1C=C(Nc2ccccc2)C(=O)c2cnccc21` were 93% and 6.36.
The matching figures for `O=C1C(Nc2ccc(OC(F)(F)F)cc2)=CC(=O)c2ncccc21`: 88% and 6.22.
The matching figures for `O=C1C=C(Nc2ccccc2)C(=O)c2ccccc21`: 98% and 6.62.
In the experiment listed under Rattus norvegicus [1], `O=C1C=C(Nc2ccc(F)cc2)C(=O)c2ccccc21` had a maximum response (Emax) of 98%. In addition, the pEC50 in the experiment filed under Rattus norvegicus [2] is 6.44.
Taken in the same sequence, the figures for `O=C1C(Nc2cc(F)cc(F)c2)=CC(=O)c2ncccc21` were 91% and 6.35.
The matching figures for `O=C1C=C(Nc2cc(F)cc(F)c2)C(=O)c2cnccc21`: 94% and 6.54.
The matching figures for `O=C1C=CC(=O)c2ccccc21` [NAPHTHOQUINONE]: 98% and 6.90.
Regarding `N=C(NCCC[C@H](N)C(=O)O)N[N+](=O)[O-]` [NITROARGININE], the Emax in the experiment filed under Rattus norvegicus [1] worked out at 69%. The pEC50 in the experiment listed under Rattus norvegicus [2] was 5.96.
